Source: patent publication US10772832B2, “Dry powder formulations for inhalation” (OTITOPIC INC., priority 2015, dated 2020)

Experiments:
[1] = Light microscopy particle size; assay type: physicochemical
From the text: Rhodine 3040 US obtained from Rhodia Inc. was used for all experiments. Particles were dispersed in 0.1% w/w docusate sodium in water and observed under a light microscope to confirm particle size. Particles ranging from 66 to 280 μm were observed confirming data from certificate of analysis, though observed “rounding” of the particulates is indicative of partial dissolution in the aqueous dispersant.
Photomicrographs of the pre- and post-micronized uncoated particles were taken by dispersing them in a solution of 0.1% w/w docusate sodium in purified water USP, and using a digital imaging light microscope (Olympus BX51 with Clemex ST-2000 controller) at 400-times or 1000-times magnification.

[2] = Anti-solvent suspension evaluation (filtration, residue weighing); assay type: physicochemical; conditions: 5% w/w suspension, room temperature
Method: After considering a number of factors in the end it was determined that only n-heptane and toluene fulfilled all the requirements, and therefore these were selected for further evaluation. Suspensions of acetylsalicylic acid at 5% w/w were prepared with the various anti-solvents, by charging the required amount of anti-solvent, charging the required amount of acetylsalicylic acid, and then stirring until a homogeneous suspension was obtained. The suspensions were qualitatively evaluated at room temperature and then filtered using a 0.45 μm membrane, which was then placed in an oven and dried at 60° C. until the solvent had completely evaporated. A quantitative analysis was performed on the residue that remained in the membrane by weighing the membrane before and after the test.

Which “Reduction in the starting particle size by micronization” value [1] does the source give for `CC(=O)Oc1ccccc1C(=O)O` [acetylsalicylic acid] here?
The value was “approximately 70 fold”.

And the Behavior towards n-heptane [2]?
The Behavior towards n-heptane was “phobic behavior”.

And the Solubility in toluene [2]?
The Solubility in toluene was “partially soluble”.
